Assay results as given in patent publication US20090074878A1, “Non-Toxic Water Soluble Inorganice Antimicrobal Polymer and Related Methods” (priority 2005, published 2009).

Tested on: E coli O157:H7
Assay: Effect of pH on Concrobium activity, lysis under light microscope (Example 5)
Type: cell-based
Details: one million CFU
Method: One million CFU of E coli O157:H7 were incubated with the following and samples of each were observed under a light microscope:
1. 1 mL of Concrobium, normal saline and 0.1 N (normal) sodium hydroxide 2. 1 mL of Concrobium and normal saline 3. 1 mL normal saline

[Na+].[OH-] [sodium hydroxide]
lysing effect on E coli in suspension: lysed the E. coli in suspension
